Like-named read-outs stand apart in the source and are kept apart here.

The results in this text go back to patent US20170128720A1, “METHODS AND DEVICES FOR MODULATING GENE EXPRESSION AND ENZYME ACTIVITY” (VOMARIS INNOVATIONS, INC, priority 2014, published 2017).

Test [1] relates to HUVEC cells. Put plainly: EF-induced elongation of endothelial cells, drug inhibition (long:short axis ratio). Type of test: cell-based. As to conditions: for long:short axis ratio / long axis in EF-treated cells: drug 50 μM. Here is the method:
HUVEC cells were seeded in a trough formed by two parallel (1 cm apart) strips of glass coverslip (No. 1, length of 22 mm) fixed to the base of the dish with silicone grease. Scratch lines were made perpendicular to the long axis of the chamber with a fine sterile needle and used as reference marks for directed cell migration. Cells were incubated for 24-48 hours (37° C., 5% CO2) before a roof coverslip was applied and sealed with silicone grease. The final dimensions of the chamber, through which current was passed, were 22×10×0.2 mm. Agar-salt bridges not less than 15 cm long were used to connect silver/silver-chloride electrodes in beakers of Steinberg's solution (58 mM NaCl, 0.67 mM KCl, 0.44 mM Ca(NO3)2, 1.3 mM MgSO4, 4.6 mM Trizma base, pH 7.8-8.0), to pools of excess culture medium at either side of the chamber. Field strengths were measured directly at the beginning of, the end of and during each experiment. No fluctuations in field strength were observed. […] (50 μM), the Rho kinase inhibitor Y27632 (50 μM), both Akt and Rho kinase inhibitors (10 μM each) or latrunculin (50 nM) for 1 hour before EF stimulation. The same concentration of drug was present during EF (electric field) exposure in a CO2 incubator.
A series of images was taken with an image analyser immediately before EF exposure and at 4, 8 and 24 hours of EF exposure. Cell orientation was quantified as an orientation index (Oi), which is defined as Oi=cos 2(α), where α is the angle formed by the long axis of a cell with a line drawn perpendicular to the field lines. A cell with its long axis parallel to the vector of the EF will have an Oi of −1, and a cell with its long axis exactly perpendicular to the EF vector will have an Oi of +1. […] The significance of this two-dimensional orientation distribution against randomness was calculated using Rayleigh's distribution. A long:short axis ratio was calculated for assessment of elongation.
HUVEC cells elongated dramatically in an EF. […] We quantified the elongation of the cells using a long:short axis ratio. […]

Test [2] relates to HUVEC cells. Put plainly: EF-induced reorientation of endothelial cells, drug inhibition (orientation index Oi). It is filed as cell-based.
Method: HUVEC cells were seeded in a trough formed by two parallel (1 cm apart) strips of glass coverslip (No. 1, length of 22 mm) fixed to the base of the dish with silicone grease. Scratch lines were made perpendicular to the long axis of the chamber with a fine sterile needle and used as reference marks for directed cell migration. Cells were incubated for 24-48 hours (37° C., 5% CO2) before a roof coverslip was applied and sealed with silicone grease. The final dimensions of the chamber, through which current was passed, were 22×10×0.2 mm. Agar-salt bridges not less than 15 cm long were used to connect silver/silver-chloride electrodes in beakers of Steinberg's solution (58 mM NaCl, 0.67 mM KCl, 0.44 mM Ca(NO3)2, 1.3 mM MgSO4, 4.6 mM Trizma base, pH 7.8-8.0), to pools of excess culture medium at either side of the chamber. Field strengths were measured directly at the beginning of, the end of and during each experiment. No fluctuations in field strength were observed. […] The same concentration of drug was present during EF (electric field) exposure in a CO2 incubator.
A series of images was taken with an image analyser immediately before EF exposure and at 4, 8 and 24 hours of EF exposure. Cell orientation was quantified as an orientation index (Oi), which is defined as Oi=cos 2(α), where α is the angle formed by the long axis of a cell with a line drawn perpendicular to the field lines. A cell with its long axis parallel to the vector of the EF will have an Oi of −1, and a cell with its long axis exactly perpendicular to the EF vector will have an Oi of +1. A randomly oriented population of cells will have an average Oi {defined as [Σn cos 2(α)]÷n} of 0. The significance of this two-dimensional orientation distribution against randomness was calculated using Rayleigh's distribution. A long:short axis ratio was calculated for assessment of elongation.
Setting [3] is: drug 50 μM, 1 hour before and during EF.

With “1-L-6-hydroxymethyl-chiro-inositol 2-[(R)-2-O-methyl-3-O-octadecylcarbonate] [Akt inhibitor]”, the “long:short axis ratio / long axis in EF-treated cells” value in test [1] is on record as “significantly decreased”. Also, in test [2] (setting [3]), the “reorientation / orientation response of cells in an EF” value (“reorientation / orientation response” below) was “significantly decreased”.

For the molecule `C/C1=C/C(=O)O[C@@H]2C[C@@H](CC[C@H](C)/C=C\C=C\CC1)O[C@@](O)([C@@H]1CSC(=O)N1)C2` [Latrunculin A], the EF-induced elongation response result in test [1] (latrunculin 50 nM) is “completely abolished”. Also, in test [2] (latrunculin 50 nM), the “orientation response in EF” value is listed as “suppressed the orientation response significantly”.

In the case of `N#CC(=C(/N)Sc1ccccc1N)/C(C#N)=C(\N)Sc1ccccc1N` [U0126], in test [2], the “orientation index Oi” value is 0.33±0.03 and the “reorientation / orientation response” value is given as “decreased the orientation to a similar extent”.

Regarding `COc1cc2ncnc(Nc3ccc(Cl)cc3F)c2cc1OC` [VEGFR inhibitor, 4-[(4′-chloro-2′-fluoro)phenylamino]-6,7-dimethoxyquinazoline], the “reorientation / orientation response” value in test [2] (setting [3]) is given as “completely abolished”.

On to `C[C@@H](N)[C@H]1CC[C@H](C(=O)Nc2ccncc2)CC1` [Y27632], for which, in test [1], the “long:short axis ratio / long axis in EF-treated cells” value is reported as “significantly decreased”. The “orientation index Oi” value in test [2] (10 μM) came out at 0.55±0.05; in test [2] (20 μM), 0.45±0.05; in test [2] (50 μM) it was 0.24±0.05. The “orientation response in EF” value in test [2] (10 μM, 20 μM and 50 μM) is recorded as “decreased the orientation response significantly”.
